System: Escherichia coli ATCC 25922
Experiment: 50% growth inhibitory concentration (IC50) determination, Iso-Sensitest broth dilution
Assay type: cell-based
Conditions: Escherichia coli, ATCC25922, 16 h, strain Escherichia coli ATCC 25922; 10-point broth dilution, optical density at 600 nm over 16 h; read-out: Escherichia coli growth inhibition IC50
Summary of the method: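 Growth was tracked as optical density at 600 nm every 20 minutes for 16 h at 35±2° C. Compounds from DMSO stocks were serially diluted twofold over 10 points (e.g. 50–0.097 μM final) in Iso-Sensitest broth. Inhibition computed in log-phase growth to give IC50.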

Row | Compound | IC50
1 | CC(N)COc1cc(F)c2c(c1)CC(CN1CCC3(CC1)CN(c1cnc4c(n1)NC(=O)CO4)C(=O)O3)C2 (centres unmarked) [Example 260, 6-[8-[[6-(2-Aminopropoxy)-4-fluoro-2,3-dihydro-1H-inden-2-yl]methyl]-2-oxo-1-oxa-3,8-diazaspiro[4.5]decan-3-yl]-4H-pyrazino[2,3-b][1,4]oxazin-3-one; formic acid] | < 97.7 nM
2 | N#Cc1cccc2c1CC(CN1CCC3(CC1)CN(c1cnc4c(n1)NC(=O)CO4)C(=O)O3)C2 (centres unmarked) [Example 261, 2-[[2-Oxo-3-(3-oxo-4H-pyrazino[2,3-b][1,4]oxazin-6-yl)-1-oxa-3,8-diazaspiro[4.5]decan-8-yl]methyl]-2,3-dihydro-1H-indene-4-carbonitrile; formic acid] | < 97.7 nM
3 | Cc1ncc(F)c2c1CC(CCNCC1CN(c3cnc4c(n3)NC(=O)CO4)C(=O)O1)C2 (centres unmarked) [Example 265, 6-[5-[[2-(4-Fluoro-1-methyl-6,7-dihydro-5H-cyclopenta[c]pyridin-6-yl)ethylamino]methyl]-2-oxo-1,3-oxazolidin-3-yl]-4H-pyrazino[2,3-b][1,4]oxazin-3-one; formic acid] | < 97.7 nM
4 | NC(COc1cc(F)c2c(c1)CC(CNCCC1CN(c3ccc4c(n3)NC(=O)CO4)C(=O)O1)C2)C(=O)O (centres unmarked) [Example 267, 2-Amino-3-[[7-fluoro-2-[[2-[2-oxo-3-(3-oxo-4H-pyrido[3,2-b][1,4]oxazin-6-yl)-1,3-oxazolidin-5-yl]ethylamino]methyl]-2,3-dihydro-1H-inden-5-yl]oxy]propanoic acid; formic acid] | < 97.7 nM
5 | Cc1cnc(C)c2c1CC(CNCCC1CN(c3cnc4c(n3)NC(=O)CO4)C(=O)O1)C2 (centres unmarked) [Example 268, 6-[5-[2-[(1,4-Dimethyl-6,7-dihydro-5H-cyclopenta[c]pyridin-6-yl)methylamino]ethyl]-2-oxo-1,3-oxazolidin-3-yl]-4H-pyrazino[2,3-b][1,4]oxazin-3-one] | < 97.7 nM
6 | Cc1nc(C)c2c(c1C)CC(CNCCC1CN(c3cnc4c(n3)NC(=O)CO4)C(=O)O1)C2 (centres unmarked) [Example 269, 6-[2-Oxo-5-[2-[(1,3,4-trimethyl-6,7-dihydro-5H-cyclopenta[c]pyridin-6-yl)methylamino]ethyl]-1,3-oxazolidin-3-yl]-4H-pyrazino[2,3-b][1,4]oxazin-3-one] | < 97.7 nM
7 | CN(C)CCOc1cc(F)c2c(c1)CC(CNCCC1CN(c3ccc4c(n3)NC(=O)CO4)C(=O)O1)C2 (centres unmarked) [Example 271, 6-[5-[2-[[6-[2-(Dimethylamino)ethoxy]-4-fluoro-2,3-dihydro-1H-inden-2-yl]methylamino]ethyl]-2-oxo-1,3-oxazolidin-3-yl]-4H-pyrido[3,2-b][1,4]oxazin-3-one; formic acid] | < 97.7 nM
8 | CN(C)CCOc1cc(F)c2c(c1)CC(CNCCC1CN(c3cnc4c(n3)NC(=O)CO4)C(=O)O1)C2 (centres unmarked) [Example 272, 6-[5-[2-[[6-[2-(Dimethylamino)ethoxy]-4-fluoro-2,3-dihydro-H-inden-2-yl]methylamino]ethyl]-2-oxo-1,3-oxazolidin-3-yl]-4H-pyrazino[2,3-b][1,4]oxazin-3-one; formic acid] | < 97.7 nM
9 | CCn1cc(C(=O)O)c(=O)c2ccc3c(c21)CC(CNCCC1CN(c2ccc4c(n2)NC(=O)CO4)C(=O)O1)C3 (centres unmarked) [Example 275, 1-Ethyl-4-oxo-8-[[2-[2-oxo-3-(3-oxo-4H-pyrido[3,2-b][1,4]oxazin-6-yl)-1,3-oxazolidin-5-yl]ethylamino]methyl]-8,9-dihydro-7H-cyclopenta[h]quinoline-3-carboxylic acid] | 592 nM
10 | CCn1cc(C(=O)O)c(=O)c2ccc3c(c21)CC(CNCCC1CN(c2cnc4c(n2)NC(=O)CO4)C(=O)O1)C3 (centres unmarked) [Example 276, 1-Ethyl-4-oxo-8-[[2-[2-oxo-3-(3-oxo-4H-pyrazino[2,3-b][1,4]oxazin-6-yl)-1,3-oxazolidin-5-yl]ethylamino]methyl]-8,9-dihydro-7H-cyclopenta[h]quinoline-3-carboxylic acid] | 635 nM
11 | Cc1ncc(F)c2c1CC(CN1CCC3(CN(c4ccc5c(n4)NC(=O)CO5)C(=O)O3)C(CO)C1)C2 (centres unmarked) [Example 277, 6-[8-[(4-fluoro-1-methyl-6,7-dihydro-5H-cyclopenta[c]pyridin-6-yl)methyl]-6-(hydroxymethyl)-2-oxo-1-oxa-3,8-diazaspiro[4.5]decan-3-yl]-4H-pyrido[3,2-b][1,4]oxazin-3-one] | 628 nM
12 | Cc1ncc(F)c2c1CC(CCNCC1(CCO)CN(c3ccc4c(n3)NC(=O)CO4)C(=O)O1)C2 (centres unmarked) [Example 278, 6-[5-[[2-(4-fluoro-1-methyl-6,7-dihydro-5H-cyclopenta[c]pyridin-6-yl)ethylamino]methyl]-5-(2-hydroxyethyl)-2-oxo-1,3-oxazolidin-3-yl]-4H-pyrido[3,2-b][1,4]oxazin-3-one] | 1890 nM
13 | Cc1nccc2c1CC(CNCCC1CN(c3cnc4c(n3)NC(=O)CO4)C(=O)O1)C2 (centres unmarked) [Example 279, 6-[5-[2-[(1-methyl-6,7-dihydro-5H-cyclopenta[c]pyridin-6-yl)methylamino]ethyl]-2-oxo-1,3-oxazolidin-3-yl]-4H-pyrazino [2,3-b][1,4]oxazin-3-one; formic acid] | < 97.7 nM
14 | Cc1ncc(F)c2c1CC(N)(CCNCC1CN(c3ccc4c(n3)NC(=O)CO4)C(=O)O1)C2 (centres unmarked) [Example 280, 6-[5-[[2-(6-amino-4-fluoro-1-methyl-5,7-dihydrocyclopenta[c]pyridin-6-yl)ethylamino]methyl]-2-oxo-1,3-oxazolidin-3-yl]-4H-pyrido[3,2-b][1,4]oxazin-3-one] | 844 nM
15 | O=C1COc2ncc(N3CC(CCNCC4Cc5cccc(Cl)c5C4)OC3=O)nc2N1 (centres unmarked) [Example 281, 6-[5-[2-[(4-Chloro-2,3-dihydro-1H-inden-2-yl)methylamino]ethyl]-2-oxo-1,3-oxazolidin-3-yl]-4H-pyrazino[2,3-b][1,4]oxazin-3-one] | < 97.7 nM
16 | Cc1nnc(C)c2c1CC(CNCCC1CN(c3cnc4c(n3)NC(=O)CO4)C(=O)O1)C2 (centres unmarked) [Example 283, 6-[5-[2-[(1,4-dimethyl-6,7-dihydro-5H-cyclopenta[d]pyridazin-6-yl)methylamino]ethyl]-2-oxo-1,3-oxazolidin-3-yl]-4H-pyrazino[2,3-b][1,4]oxazin-3-one] | 888 nM
17 | Cc1nnc(C)c2c1CC(CNCCC1CN(c3ccc4c(n3)NC(=O)CO4)C(=O)O1)C2 (centres unmarked) [Example 284, 6-[5-[2-[(1,4-dimethyl-6,7-dihydro-5H-cyclopenta[d]pyridazin-6-yl)methylamino]ethyl]-2-oxo-1,3-oxazolidin-3-yl]-4H-pyrido[3,2-b][1,4]oxazin-3-one] | 1270 nM
18 | Cc1nnc(C)c2c1CC(CNCCC1CN(c3ccc4c(n3)NC(=O)CS4)C(=O)O1)C2 (centres unmarked) [Example 285, 5-[2-[(1,4-dimethyl-6,7-dihydro-5H-cyclopenta[d]pyridazin-6-yl)methylamino]ethyl]-3-(3-oxo-4H-pyrido[3,2-b][1,4]thiazin-6-yl)-1,3-oxazolidin-2-one] | 925 nM
19 | CNC(=O)COc1ccc2c(c1C#N)CC(CNCCC1CN(c3cnc4c(n3)NC(=O)CO4)C(=O)O1)C2 (centres unmarked) [Example 286, 2-[[4-cyano-2-[[2-[2-oxo-3-(3-oxo-4H-pyrazino[2,3-b][1,4]oxazin-6-yl)-1,3-oxazolidin-5-yl]ethylamino]methyl]-2,3-dihydro-1H-inden-5-yl]oxy]-N-methylacetamide] | < 97.7 nM
20 | O=C1COc2ncc(N3CC(CCNCC4Cc5cncc(F)c5C4)OC3=O)nc2N1 (centres unmarked) [Example 287, 6-[5-[2-[(4-fluoro-6,7-dihydro-5H-cyclopenta[c]pyridin-6-yl)methylamino]ethyl]-2-oxo-1,3-oxazolidin-3-yl]-4H-pyrazino[2,3-b][1,4]oxazin-3-one] | < 97.7 nM
21 | O=C1COc2ccc(N3CC(CCNCC4Cc5cncc(F)c5C4)OC3=O)nc2N1 (centres unmarked) [Example 288, 6-[5-[2-[(4-fluoro-6,7-dihydro-5H-cyclopenta[c]pyridin-6-yl)methylamino]ethyl]-2-oxo-1,3-oxazolidin-3-yl]-4H-pyrido[3,2-b][1,4]oxazin-3-one] | < 97.7 nM
22 | N#Cc1cccc2c1CC(CNCCC1CN(c3ncc4c(n3)NC(=O)CO4)C(=O)O1)C2 (centres unmarked) [Example 289, 2-[[2-[2-oxo-3-(7-oxo-8H-pyrimido [5,4-b] [1,4]oxazin-2-yl)-1,3-oxazolidin-5-yl]ethylamino]methyl]-2,3-dihydro-1H-indene-4-carbonitrile] | < 97.7 nM
23 | Cc1ncc(C#N)c2c1CC(CNCCC1CN(c3cnc4c(n3)NC(=O)CO4)C(=O)O1)C2 (centres unmarked) [Example 291, 1-methyl-6-[[2-[2-oxo-3-(3-oxo-4H-pyrazino[2,3-b][1,4]oxazin-6-yl)-1,3-oxazolidin-5-yl]ethylamino]methyl]-6,7-dihydro-5H-cyclopenta[c]pyridine-4-carbonitrile;2,2,2-trifluoroacetic acid] | < 97.7 nM
24 | CC(C)(O)COc1cc(F)c2c(c1)CC(CNCCC1CN(c3cnc4c(n3)NC(=O)CO4)C(=O)O1)C2 (centres unmarked) [Example 292, 6-[5-[2-[[4-fluoro-6-(2-hydroxy-2-methylpropoxy)-2,3-dihydro-1H-inden-2-yl]methylamino]ethyl]-2-oxo-1,3-oxazolidin-3-yl]-4H-pyrazino[2,3-b][1,4]oxazin-3-one] | 403 nM
25 | Cc1ncc(F)c2c1CC(CNCCc1cn(-c3cnc4c(n3)NC(=O)CO4)c(=O)o1)C2 (centres unmarked) [Example 293, 6-[5-[2-[(4-fluoro-1-methyl-6,7-dihydro-5H-cyclopenta[c]pyridin-6-yl)methylamino]ethyl]-2-oxo-1,3-oxazol-3-yl]-4H-pyrazino[2,3-b][1,4]oxazin-3-one] | < 97.7 nM
26 | Nc1nnnn1CCOc1cc(F)c2c(c1)CC(CNCCC1CN(c3cnc4c(n3)NC(=O)CO4)C(=O)O1)C2 (centres unmarked) [Example 294, 6-[5-[2-[[6-[2-(5-aminotetrazol-1-yl)ethoxy]-4-fluoro-2,3-dihydro-1H-inden-2-yl]methylamino]ethyl]-2-oxo-1,3-oxazolidin-3-yl]-4H-pyrazino[2,3-b][1,4]oxazin-3-one; formic acid] | 727 nM
